Data taken from US20230143470A1, “SMALL MOLECULE INHIBITORS OF INFLUENZA HEMAGGLUTININ” (THE SCRIPPS RESEARCH INSTITUTE, priority 2020, published 2023).

Target: H3/HK68 HA (Influenza A virus, UniProt Q91MA7)
Sequence (Q91MA7 27-521 limits assumed): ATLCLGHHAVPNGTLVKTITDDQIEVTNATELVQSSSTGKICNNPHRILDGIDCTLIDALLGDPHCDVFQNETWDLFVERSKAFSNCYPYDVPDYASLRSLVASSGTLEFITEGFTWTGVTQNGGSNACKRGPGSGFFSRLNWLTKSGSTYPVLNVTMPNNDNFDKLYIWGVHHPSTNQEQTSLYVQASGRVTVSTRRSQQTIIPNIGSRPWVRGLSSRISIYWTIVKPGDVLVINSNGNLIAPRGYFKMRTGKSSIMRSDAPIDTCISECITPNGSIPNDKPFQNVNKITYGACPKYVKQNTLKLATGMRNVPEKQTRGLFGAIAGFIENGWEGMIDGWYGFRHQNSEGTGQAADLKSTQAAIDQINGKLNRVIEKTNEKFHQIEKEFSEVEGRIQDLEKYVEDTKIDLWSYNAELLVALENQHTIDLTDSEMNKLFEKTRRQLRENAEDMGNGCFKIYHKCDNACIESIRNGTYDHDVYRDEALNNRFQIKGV

| SMILES | melting temperature of H3/HK68 HA |
| --- | --- |
| O=C(c1ccc(Cl)cc1Cl)N1CCO[C@H](c2ccccc2)C1 [F0045(R)] | does not change |
| O=C(c1ccc(Cl)cc1Cl)N1CCO[C@@H](c2ccccc2)C1 [F0045(S)] | does not change |
